Consider 38 compounds from patent publication US7495018B2, “Substituted 1,3-thiazole compounds, their production and use” (Takeda Pharmaceutical Company Limited, priority 2000, dated 2009).

Usually melting point stands for the temperature, or range, at which the solid turns liquid.

In the case of `CCc1nc(-c2cccc(C)c2)c(-c2ccnc(NC(=O)CC3CCCC3)c2)s1` [Example 89, N-[4-[2-ethyl-4-(3-methylphenyl)-1,3-thiazol-5-yl]-2-pyridyl]cyclopentylacetamide], the melting point is 85 to 86 °C.
With `CCc1nc(-c2cccc(Cl)c2)c(-c2ccnc(NC(=O)CC3CCCC3)c2)s1` [Example 90-1, N-[4-[4-(3-chlorophenyl)-2-ethyl-1,3-thiazol-5-yl]-2-pyridyl]cyclopentylacetamide] the figure was 121 to 122 °C; with `CCc1nc(-c2ccc(Cl)cc2)c(-c2ccnc(NC(=O)CC3CCCC3)c2)s1` [Example 90-2, N-[4-[4-(4-chlorophenyl)-2-ethyl-1,3-thiazol-5-yl]-2-pyridyl]cyclopentylacetamide], 149 to 150 °C; with `CC(=O)Nc1cc(-c2sc(C3CCN(C(C)=O)CC3)nc2-c2cccc(Cl)c2)ccn1` [Example 93, N-[4-[2-(1-acetylpiperidin-4-yl)-4-(3-chlorophenyl)-1,3-thiazol-5-yl]-2-pyridyl]acetamide], 160 to 161 °C.
With `CCC(=O)Nc1cc(-c2sc(C3CCN(C(C)=O)CC3)nc2-c2cccc(Cl)c2)ccn1` [Example 94, N-[4-[2-(1-acetylpiperidin-4-yl)-4-(3-chlorophenyl)-1,3-thiazol-5-yl]-2-pyridyl]propionamide] the figure was 174 to 175 °C; with `CC(=O)Nc1cc(-c2sc(-c3ccc(S(C)(=O)=O)cc3)nc2-c2cccc(C)c2)ccn1` [Example 98-1, N-[4-[4-(3-methylphenyl)-2-(4-methylsulfonylphenyl)-1,3-thiazol-5-yl]-2-pyridyl]acetamide], 222 to 223 °C.
In turn, `CCC(=O)Nc1cc(-c2sc(-c3ccc(S(C)(=O)=O)cc3)nc2-c2cccc(C)c2)ccn1` [Example 98-2, N-[4-[4-(3-methylphenyl)-2-(4-methylsulfonylphenyl)-1,3-thiazol-5-yl]-2-pyridyl]propionamide] had a melting point of 238 to 239 °C.
With `CSCCc1nc(-c2cccc(C)c2)c(-c2ccnc(N)c2)s1` [Example 99-1, 4-[4-(3-methylphenyl)-2-[2-(methylthio)ethyl]-1,3-thiazol-5-yl]-2-pyridylamine] the figure was 98 to 99 °C; with `Cc1cccc(-c2nc(C(C)OC(=O)c3ccccc3)sc2-c2ccnc(N)c2)c1` (centres unmarked) [Example 99-2, 1-[5-(2-amino-4-pyridyl)-4-(3-methylphenyl)-1,3thiazol-2-yl]ethyl benzoate], 89 to 91 °C.
With `CCC(=O)Nc1cc(-c2sc(CCSC)nc2-c2cccc(C)c2)ccn1` [Example 102-1, N-[4-[4-(3-methylphenyl)-2-[2-(methylthio)ethyl]-1,3-thiazol-5-yl]-2-pyridyl]propionamide] the figure was 85 to 86 °C.
With `CCC(=O)Nc1cc(-c2sc(CCSC)nc2-c2cccc(Cl)c2)ccn1` [Example 102-2, N-[4-[4-(3-chlorophenyl)-2-[2-(methylthio)ethyl]-1,3-thiazol-5-yl]-2-pyridyl]propionamide] the figure was 91 to 92 °C.
Take `CCC(=O)Nc1cc(-c2sc(CSC)nc2-c2cccc(Cl)c2)ccn1` [Example 102-3, N-[4-[4-(3-chlorophenyl)-2-(methylthio)methyl-1,3-thiazol-5-yl]-2-pyridyl]propionamide]: the melting point fell in the range of 118 to 119 °C.
Regarding `CCC(=O)Nc1cc(-c2sc(C(C)(F)F)nc2-c2cccc(Cl)c2)ccn1` [Example 102-4, N-[4-[4-(3-chlorophenyl)-2-(1,1-difluoroethyl)-1,3-thiazol-5-yl]-2-pyridyl]propionamide], the melting point fell in the range of 141 to 142 °C.
With `CCC(=O)Nc1cc(-c2sc(C(C)OC(=O)c3ccccc3)nc2-c2cccc(C)c2)ccn1` (centres unmarked) [Example 102-5, 1-[4-(3-methylphenyl)-5-(2-propionylamino-4-pyridyl)-1,3-thiazol-2-yl]ethyl benzoate] the figure was 102 to 103 °C; with `CCC(=O)Nc1cc(-c2sc(C(C)OC(=O)c3ccccc3)nc2-c2cccc(Cl)c2)ccn1` (centres unmarked) [Example 102-6, 1-[4-(3-chlorophenyl)-5-(2-propionylamino-4-pyridyl)-1,3-thiazol-2-yl]ethyl benzoate], 124 to 127 °C; with `CC(=O)Nc1cc(-c2sc(C(C)OC(=O)c3ccccc3)nc2-c2cccc(Cl)c2)ccn1` (centres unmarked) [Example 103-1, 1-[5-(2-acetylamino-4-pyridyl)-4-(3-chlorophenyl)-1,3-thiazol-2-yl]ethyl benzoate], 152 to 154 °C.
Consider `CCOC(=O)Cc1nc(-c2cccc(Cl)c2)c(-c2ccnc(NC(C)=O)c2)s1` [Example 103-2, ethyl [5-(2-acetylamino-4-pyridyl)-4-(3-chlorophenyl)-1,3-thiazol-2-yl]acetate], for which the melting point is 99 to 100 °C.
`CCC(=O)Nc1cc(-c2sc(C(C)O)nc2-c2cccc(Cl)c2)ccn1` (centres unmarked) [Example 105, N-[4-[4-(3-chlorophenyl)-2-(1-hydroxyethyl)-1,3-thiazol-5-yl]-2-pyridyl]propionamide] had a melting point of 131 to 132 °C.
With `CCC(=O)Nc1cc(-c2sc(C(C)=O)nc2-c2cccc(Cl)c2)ccn1` [Example 107, N-[4-[2-acetyl-4-(3-chlorophenyl)-1,3-thiazol-5-yl]-2-pyridyl]propionamide] the figure was 115 to 117 °C; with `CCNC(=O)Nc1cc(-c2sc(CC)nc2-c2cccc(C)c2)ccn1` [Example 108, N-ethyl-N′-[4-[2-ethyl-4-(3-methylphenyl)-1,3-thiazol-5-yl]-2-pyridyl]urea], 177 to 180 °C; with `CC(=O)Nc1cc(-c2sc(C(C)OC(=O)c3ccccc3)nc2-c2cccc(C)c2)ccn1` (centres unmarked) [Example 110, 1-[5-(2-acetylamino-4-pyridyl)-4-(3-methylphenyl)-1,3-thiazol-2-yl]ethyl benzoate], 110 to 113 °C.
Compound `CC(=O)Nc1cc(-c2sc(C(C)O)nc2-c2cccc(C)c2)ccn1` (centres unmarked) [Example 111-1, N-[4-[2-(1-hydroxyethyl)-4-(3-methylphenyl)-1,3-thiazol-5-yl]-2-pyridyl]acetamide] yielded a melting point of 99 to 102 °C.
With `CC(=O)Nc1cc(-c2sc(C(C)O)nc2-c2cccc(Cl)c2)ccn1` (centres unmarked) [Example 111-2, N-[4-[4-(3-chlorophenyl)-2-(1-hydroxyethyl)-1,3-thiazol-5-yl]-2-pyridyl]acetamide] the figure was 142 to 145 °C; with `CC(=O)Nc1cc(-c2sc(C(C)=O)nc2-c2cccc(Cl)c2)ccn1` [Example 112, N-[4-[2-acetyl-4-(3-chlorophenyl)-1,3-thiazol-5-yl]-2-pyridyl]acetamide], 180 to 183 °C; with `CSCc1nc(-c2cccc(C)c2)c(-c2ccnc(N)c2)s1` [Example 113-1, 4-[4-(3-methylphenyl)-2-(methylthio)methyl-1,3-thiazol-5-yl]-2-pyridylamine], 113 to 114 °C.
`Cc1cccc(-c2nc(C(C)(F)F)sc2-c2ccnc(N)c2)c1` [Example 113-2, 4-[2-(1,1-difluoroethyl)-4-(3-methylphenyl)-1,3-thiazol-5-yl]-2-pyridylamine] showed a melting point of 140 to 141 °C.
`COc1cccc(-c2nc(N)sc2-c2ccnc(F)c2)c1` [Example Compound 7-1, [5-(2-fluoro-4-pyridyl)-4-(3-methoxyphenyl)-1,3-thiazol-2-yl]amine]: the melting point lay in the range of 190 to 191 °C.
With `Nc1nc(-c2ccc(F)cc2)c(-c2ccnc(F)c2)s1` [Example Compound 7-3, [4-(4-fluorophenyl)-5-(2-fluoro-4-pyridyl)-1,3-thiazol-2-yl]amine] the figure was 243 to 245 °C; with `Cc1cccc(-c2nc(N)sc2-c2ccnc(C)c2)c1` [Example Compound 7-4, [4-(3-methylphenyl)-5-(2-methyl-4-pyridyl)-1,3-thiazol-2-yl]amine], 205 to 206 °C.
For `Cc1cc(C)cc(-c2nc(N)sc2-c2ccnc(C)c2)c1` [Example Compound 7-5, [4-(3,5-dimethylphenyl)-5-(2-methyl-4-pyridyl)-1,3-thiazol-2-yl]amine], the melting point lay within 219 to 220 °C.
With `Cc1cccc(N2C=C(c3cc(C)nc(C)c3)SC2N)c1` (centres unmarked) [Example Compound 7-6, [5-(2,6-dimethyl-4-pyridyl)-3-(3-methylphenyl)-1,3-thiazol-2-yl]amine] the figure was 214 to 216 °C.
With `Cc1cc(C)cc(-c2nc(N)sc2-c2cc(C)nc(C)c2)c1` [Example Compound 7-7, [4-(3,5-dimethylphenyl)-5-(2,6-dimethyl-4-pyridyl)-1,3-thiazol-2-yl]amine] the figure was 256 to 258 °C; with `Cc1cc(-c2sc(N)nc2-c2ccc(F)cc2)ccn1` [Example Compound 7-8, [4-(4-fluorophenyl)-5-(2-methyl-4-pyridyl)-1,3-thiazol-2-yl]amine], 233 to 234 °C; with `CNc1nc(-c2cccc(C)c2)c(-c2ccnc(F)c2)s1` [Example Compound 8, N-methyl-[5-(2-fluoro-4-pyridyl)-4-(3-methylphenyl)-1,3-thiazol-2-yl]amine], 186 to 187 °C.
With `CNc1nc(-c2cccc(C)c2)c(-c2ccnc(C)c2)s1` [Example Compound 9, N-methyl-[4-(3-methylphenyl)-5-(2-methyl-4-pyridyl)-1,3-thiazol-2-yl]amine] the figure was 164 to 165 °C; with `Cc1cccc(-c2nc(N(C)C)sc2-c2ccnc(C)c2)c1` [Example Compound 10, N,N-dimethyl-[4-(3-methylphenyl)-5-(2-methyl-4-pyridyl)-1,3-thiazol-2-yl]amine], 77 to 79 °C.
`CCc1nc(-c2cccc(Cl)c2)c(-c2ccnc(F)c2)s1` [Example Compound 12, 2-ethyl-4-(3-chlorophenyl)-5-(2-fluoro-4-pyridyl)-1,3-thiazole] came in with a melting point of 102 to 103 °C.
With `Cc1cccc(-c2nc(-c3ccccc3Cl)sc2-c2ccnc(C)c2)c1` [Example Compound 14-1, 2-(2-chlorophenyl)-4-(3-methylphenyl)-5-(2-methyl-4-pyridyl)-1,3-thiazole] the figure was 83 to 84 °C.
